Patent publication US20230190707A1, “COMPOSITIONS AND METHODS FOR ENHANCING CANCER IMMUNOTHERAPY” (FRED HUTCHINSON CANCER CENTER, priority 2020, published 2023)
Where two headings read alike, the source gives them in different places.

How the values were obtained:
[1] = tested on: 501-MEL, A375, and SK-MEL-239; assay: RNA-seq splicing analysis, human tumor cell lines; type: cell-based; settings: identical treatment
Description: (§1) Bulk lung and colon were homogenized using a Qiagen TissueRuptor. For all tissues and cell types, RNA was extracted using an RNeasy kit (Qiagen, Frederick, Md.) and quantified using a NanoDrop 8000 (ThermoFisher Scientific). A minimum of 500 ng of high-quality RNA (as determined by Agilent Bioanalyzer) per sample or replicate was used for library preparation. Poly(A)-selected, strand-specific (dUTP method) Illumina libraries were prepared with a modified TruSeq protocol and sequenced on the Illumina HiSeq 2000 (˜100M 2×101 bp paired-end reads per sample or replicate).
(§2) RNA-seq analysis was performed as previously described (Dvinge, H., et al. (2014). Sample processing obscures cancer-specific alterations in leukemic transcriptomes. Proc Natl Acad Sci USA 111, 16802-16807, incorporated herein by reference in its entirety). […] Aligned reads from these two mapping steps were merged to generate final BAM files for all subsequent analyses.
(§3) MISO v2.0 was used to quantify all expression of isoforms arising from exon skipping (cassette exons), competing 5′ splice site selection, competing 3′ splice site selection, and annotated intron retention. […]

[2] = tested on: CD8^+ T cell proliferation; assay: Mixed leukocyte reaction with BMDCs loaded with lysates of drug-treated MC38 cells; type: cell-based, mouse; settings: wild-type BMDCs loaded with lysates of treated MC38 cells; day 5
Description: RBC lysed bone marrow obtained from the femurs and tibias of C57BL/6 or P2 microglobulin deficient mice (Jackson Laboratories Cat. 2087) were cultured with mouse IL-3 (PeproTech Cat. 213-13) and mouse FLT3 ligand (PeproTech Cat. 250-31L) both at 10 ng/mL each in RPMI+10% FCS for 7 days to generate bone marrow derived dendritic cells. Separately, […] MC38 treated with splicing inhibitors vs. DMSO or expressing chicken ovalbumin were harvested, washed and resuspended in sterile PBS, and subjected to five cycles of rapid freeze-thaw (alternating between 37° C. and dry ice/acetone) to generate a cell lysate. After brief centrifugation at 100×g, the soluble fraction in PBS was added to bone marrow derived DCs and left to incubate overnight for antigen phagocytosis in the presence of LPS (ThermoFisher Cat. 00-4976-93). DCs were subsequently washed three times to remove cell-free lysates and LPS and incubated in a 1:1 ratio with CFSE-labeled B6 splenic T cells (10^5 stimulators with 10^5 responders) as described above. The MLR was analyzed at day 5 by flow cytometry.

[3] = tested on: B16-F10, MB49, MC38, and CT26; assay: RNA-seq splicing analysis, mouse tumor cell lines; type: cell-based; settings: doses that did not affect tumor cell growth in vitro
Description: Unless otherwise specified, cell lines were treated with splicing inhibitors at the indicated concentrations for 96 hours in vitro, harvested and washed three times with PBS in excess to remove all drug, and then used for downstream analyses and/or subsequent studies, including phenotyping, RNA-seq analyses, continued growth in vitro, or tumor challenge in vivo into syngeneic animals.
as §1
as §2, with “analyses. […]” for “analyses.”

[4] = tested on: T cells stimulated with anti-CD3 and CD28 antibodies; assay: Gene expression program of activated T cells (RNA-seq); type: cell-based, mouse; settings: ex vivo anti-CD3 and CD28 stimulation in presence of drug
Description: Plates were coated with 10 μg/mL anti-CD3 (clone 145-2C11, Biolegend Cat. 100302) and 2 μg/mL anti-CD28 (clone 37.51, Biolegend Cat. 102102) in PBS overnight at 4° C. and washed twice with cold PBS prior to use. CFSE-labeled CD5-selected splenic T cells from naïve C57BL/6J mice were obtained identically as for adoptive cell transfer, and 5×10^4 cells incubated with coated plates in the presence of splicing inhibitor drugs at the indicated concentrations, followed by analysis by standard flow cytometry on day 3. Of note, for RNA-seq analyses, T cells were not labeled with CFSE, and underwent activation for 4 days (96 hours) in the presence of various splicing modulator drugs to harmonize experimental conditions with RNA-seq analyses of tumors treated with splicing inhibitors. For the RNA-seq experiments only, T cells in all conditions were also incubated with IL-2 at 50 U/mL to maximize viability and yield.
as §1

[5] = tested on: bone marrow hematopoietic stem and progenitor cells; assay: M3434 methylcellulose colony assay; type: cell-based, mouse
Description: 25,000 red blood cell-lysed bone marrow mononuclear cells from C57BL/6 mice were plated in duplicates or triplicates in each well of a non-tissue-culture treated 6 well plate with M3434 methylcellulose media in the presence of splicing drugs at the indicated concentrations as per manufacturer's instructions (StemCell Technologies, Cat. 03434) and incubated for seven days prior to quantification of colonies by manual microscopy.

[6] = tested on: lung and colonic tissue, splenic T cells; assay: RNA-seq of non-tumor tissues from indisulam-treated animals; type: in vivo, mouse
Description: as §1, §2, §3

[7] = mouse, in vivo
Description: Animals were subcutaneously engrafted on bilateral flanks with tumor cells (MC38 1×10^6, B16-F10 0.5×10^6 and LLC 0.25×10^6 cells unless otherwise specified) on day 0, and treated continuously with splicing inhibitors (MS-023 50 mg/kg i.p., indisulam 25 mg/kg i.v. or vehicle) daily for 5 of 7 weekly days starting from day +3 of tumor challenge. […] Mice were weighed weekly for weight-based drug dosing.

In the case of `CC(C)Oc1ccc(-c2c[nH]cc2CN(C)CCN)cc1` [MS-023], the “splicing changes in human cancer cells” value [1] is reported as “stereotyped and pervasive splicing changes”, the “CD8^+ T cell proliferation vs DMSO- or no lysate-pulsed control BMDCs” value [2] is reported as “more strongly promoted CD8^+ T cell proliferation” and the “splicing changes in mouse tumor cell lines” value [3] is reported as “dramatic changes in both alternative and constitutive splicing”. For the same compound, the “genes normally upregulated upon T cell activation” value [4] was “much milder changes” and the “hematopoiesis (colony formation)” value ([5]; micromolar doses, pladienolide B at nanomolar concentrations) was “intact”.
With `NS(=O)(=O)c1ccc(S(=O)(=O)Nc2cccc3c(Cl)c[nH]c23)cc1` [indisulam] the “splicing changes in human cancer cells” value [1] was “stereotyped and pervasive splicing changes”, the “splicing changes in lung, colonic tissue and splenic T cells” value [6] was “only mild changes in splicing” and the “CD8^+ T cell proliferation vs DMSO- or no lysate-pulsed control BMDCs” value [2] was “more strongly promoted CD8^+ T cell proliferation”. For the same compound, the “splicing changes in mouse tumor cell lines” value [3] was “dramatic changes in both alternative and constitutive splicing”, the “genes normally upregulated upon T cell activation” value [4] was “much milder changes” and the “lymphocytes, neutrophils, or other peripheral blood counts” value [7] was “negligible effects”. For the same compound, the “hematopoiesis (colony formation)” value [5] was “intact”.
